For one assay, the target named is T1, KRAS (G13D) and SOS1 (Homo sapiens, UniProt P01116, C118S/G13D).
T1 construct: KRAS (G13D) 1-169, N-terminal 6His-tag for purification; 6His (N, cleaved yes); TEV cleavage site
Put plainly: KRAS::SOS1 AlphaScreen binding assay, KRAS G13D. The source says:
This assay can be used to examine the potency with which compounds according to the invention binding to (mutated) KRAS inhibit the protein-protein interaction between SOS1 and (mutated) KRAS e.g., KRAS WT, KRAS G12C, KRAS G12D, KRAS G12V or KRAS G13D. […] Low IC50 values in this assay setting are indicative of strong inhibition of protein-protein interaction between SOS1 and KRAS:
These assays measure the inhibitory effect of compounds on KRAS mutant protein-protein interactions using the Alpha Screen technology by Perkin Elmer. […]
Plates are kept at room temperature in a darkened incubator. After an additional 60 minutes incubation time the signal is measured in a PerkinElmer Envision HTS Multilabel Reader using the AlphaScreen specs from PerkinElmer. […]
As internal control known inhibitors of KRAS mutant::SOS1 interaction can be measured on each compound plate. […]
Background: Alpha assays give light when donor and acceptor beads are brought close together.

The next assay concerns NCI-H358 cells. Put plainly: NCI-H358 CTG proliferation assay (120 h), assay 1. In kind it is cell-based. To be noted: Homo sapiens, 96 well, 2000 cells per well. Here is the method: NCI-H358 cells (ATCC No. CRL-5807) are dispensed into white bottom opaque 96 well plates (Perkin Elmer cat no. 5680) at a density of 2000 cells per well in 100 μL RPMI-1640 ATCC-Formulation (Gibco #A10491)+10% FCS (fetal calf serum) (assay 1) or into black 384-well plates, flat and clear bottom (Greiner, PNr. 781091) at a density of 200 cells per well in 60 μl RPMI-1640 ATCC-Formulation (Gibco #A10491)+10% FCS (fetal calf serum) (assay 2). […] Compounds (10 mM stock in DMSO) are added at logarithmic dose series using the HP Digital Dispenser D300 (Tecan) (assay 1) or the ECHO acoustic liquid handler system (Beckman Coulter) (assay 2), normalizing for added DMSO and including DMSO controls. For the T0 time point measurement, untreated cells are analyzed at the time of compound addition. Plates are incubated for 120 h, and cell viability is measured using CellTiter-Glo luminescent cell viability reagent (Promega product code G7570). Viability (stated as percent of control) is defined as relative luminescence units RLU of each well divided by the RLU of cells in DMSO controls. IC50 values are determined from viability measurements by non-linear regression using a four-parameter model.

In a further assay the test system is GP2D cells. Put plainly: GP2D proliferation assay (120 h). In kind it is cell-based. To be noted: colorectal cancer, G12D. Here is the method: GP2D cells (ATCC No. CRL-5807) are dispensed into white 384-well plates, flat and white bottom(Perkin Elmer, 6007680) at a density of 500 cells per well in 40 μl DMEM (Sigma, D6429)+1×GlutaMAX (Gibco, 35050038)+10% FCS (fetal calf serum). […] Compounds (10 mM stock in DMSO) are added at logarithmic dose series using the HP Digital Dispenser D300 (Tecan), including DMSO controls and normalizing for added DMSO. For the T0 time point measurement, untreated cells are analyzed at the time of compound addition. Plates are incubated for 120 h, and cell viability is measured using CellTiter-Glo luminescent cell viability reagent (Promega product code G7570). Viability (stated as percent of control) is defined as relative luminescence units RLU of each well divided by the RLU of cells in DMSO controls. IC50 values are determined from viability measurements by non-linear regression using a four-parameter model.

Molecules are shown by their SMILES.

T1 sequence (P01116 1-169 isoform P01116-2 G13D/C118S): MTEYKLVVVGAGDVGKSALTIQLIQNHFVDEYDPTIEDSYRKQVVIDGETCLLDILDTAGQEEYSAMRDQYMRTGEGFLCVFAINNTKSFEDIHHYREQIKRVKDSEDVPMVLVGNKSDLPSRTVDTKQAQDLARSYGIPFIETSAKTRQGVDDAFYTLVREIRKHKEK

With `C[C@H]1CN(C)CCN1c1cccc(-c2noc([C@@]3(C)CCCc4sc(N)c(C#N)c43)n2)n1` [Example V-1], on KRAS (G13D) and SOS1, the IC50 – broadly, the concentration at which inhibition is half-maximal – is 928 nM. Still for that read-out and setting: next, `C[C@H](Oc1cccc(-c2noc([C@@]3(C)CCCc4sc(N)c(C#N)c43)n2)n1)[C@@H]1CCCN1C` [Example V-8]: 176 nM.

As to `CC(C)N1CCCN(c2nccc(-c3noc([C@@]4(C)CCCc5sc(N)c(C#N)c54)n3)n2)[C@@H](C)C1` [Example V-9], the IC50 in the assay on NCI-H358 cells is 698 nM. In the assay on NCI-H358 cells, `C[C@H](Oc1nccc(-c2noc([C@@]3(C)CCCc4sc(N)c(C#N)c43)n2)n1)[C@@H]1CCCN1C` [Example V-10] displayed an IC50 of 5410 nM. Compared with the last compound, the IC50 is about 7.8-fold higher.

On to `C[C@H](Oc1ccnc(-c2noc([C@@]3(C)CCCc4sc(N)c(C#N)c43)n2)n1)[C@@H]1CCCN1C` [Example V-11], for which the IC50 in the assay with GP2D cells is 152 nM.

(Values after patent publication US20250313553A1, “ANNULATED 2-AMINO-3-CYANO THIOPHENES AND DERIVATIVES FOR THE TREATMENT OF CANCER” (Boehringer Ingelheim Int'l GmbH Corp., priority 2021, published 2025).)
